{"source": "ChEMBL document CHEMBL5696442", "about": "“Discovery of type II inhibitors of TGFβ-activated kinase 1 (TAK1) and mitogen-activated protein kinase kinase kinase kinase 2 (MAP4K2)” (J Med Chem, 2015)", "key": {"[1]": {"target": "T1, Mitogen-activated protein kinase kinase kinase kinase 2 (Homo sapiens) (UniProt Q12851)", "T1 sequence (whole entry)": "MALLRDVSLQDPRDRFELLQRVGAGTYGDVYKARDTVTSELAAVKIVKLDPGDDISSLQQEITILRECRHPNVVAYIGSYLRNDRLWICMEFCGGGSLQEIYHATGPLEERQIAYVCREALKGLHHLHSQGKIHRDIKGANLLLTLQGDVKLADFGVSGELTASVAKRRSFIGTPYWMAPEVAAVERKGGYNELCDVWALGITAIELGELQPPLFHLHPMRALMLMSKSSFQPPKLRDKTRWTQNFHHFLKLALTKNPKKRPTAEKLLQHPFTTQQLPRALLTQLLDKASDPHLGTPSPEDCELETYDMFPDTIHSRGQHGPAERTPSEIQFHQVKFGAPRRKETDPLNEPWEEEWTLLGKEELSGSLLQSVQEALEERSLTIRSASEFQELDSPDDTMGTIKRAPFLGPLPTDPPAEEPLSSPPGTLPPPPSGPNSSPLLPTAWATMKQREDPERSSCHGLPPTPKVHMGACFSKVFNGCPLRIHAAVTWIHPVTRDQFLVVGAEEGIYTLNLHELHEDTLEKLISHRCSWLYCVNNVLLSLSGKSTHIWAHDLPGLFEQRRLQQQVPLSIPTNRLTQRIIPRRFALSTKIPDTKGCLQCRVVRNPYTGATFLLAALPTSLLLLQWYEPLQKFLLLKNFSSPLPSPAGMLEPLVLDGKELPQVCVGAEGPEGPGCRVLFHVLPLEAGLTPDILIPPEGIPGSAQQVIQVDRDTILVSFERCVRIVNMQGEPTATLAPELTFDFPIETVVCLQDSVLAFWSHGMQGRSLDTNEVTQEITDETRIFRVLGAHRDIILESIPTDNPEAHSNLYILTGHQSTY", "experiment": "Inhibition of MAP4K2 (GCK) Lys2 labeling site in human A-375 cells at 5 uM by KiNativ Profiling analysis relative to control", "type": "cell-based"}, "[2]": {"target": "Epidermal growth factor receptor (Homo sapiens) (UniProt P00533)", "sequence (P00533 whole entry)": "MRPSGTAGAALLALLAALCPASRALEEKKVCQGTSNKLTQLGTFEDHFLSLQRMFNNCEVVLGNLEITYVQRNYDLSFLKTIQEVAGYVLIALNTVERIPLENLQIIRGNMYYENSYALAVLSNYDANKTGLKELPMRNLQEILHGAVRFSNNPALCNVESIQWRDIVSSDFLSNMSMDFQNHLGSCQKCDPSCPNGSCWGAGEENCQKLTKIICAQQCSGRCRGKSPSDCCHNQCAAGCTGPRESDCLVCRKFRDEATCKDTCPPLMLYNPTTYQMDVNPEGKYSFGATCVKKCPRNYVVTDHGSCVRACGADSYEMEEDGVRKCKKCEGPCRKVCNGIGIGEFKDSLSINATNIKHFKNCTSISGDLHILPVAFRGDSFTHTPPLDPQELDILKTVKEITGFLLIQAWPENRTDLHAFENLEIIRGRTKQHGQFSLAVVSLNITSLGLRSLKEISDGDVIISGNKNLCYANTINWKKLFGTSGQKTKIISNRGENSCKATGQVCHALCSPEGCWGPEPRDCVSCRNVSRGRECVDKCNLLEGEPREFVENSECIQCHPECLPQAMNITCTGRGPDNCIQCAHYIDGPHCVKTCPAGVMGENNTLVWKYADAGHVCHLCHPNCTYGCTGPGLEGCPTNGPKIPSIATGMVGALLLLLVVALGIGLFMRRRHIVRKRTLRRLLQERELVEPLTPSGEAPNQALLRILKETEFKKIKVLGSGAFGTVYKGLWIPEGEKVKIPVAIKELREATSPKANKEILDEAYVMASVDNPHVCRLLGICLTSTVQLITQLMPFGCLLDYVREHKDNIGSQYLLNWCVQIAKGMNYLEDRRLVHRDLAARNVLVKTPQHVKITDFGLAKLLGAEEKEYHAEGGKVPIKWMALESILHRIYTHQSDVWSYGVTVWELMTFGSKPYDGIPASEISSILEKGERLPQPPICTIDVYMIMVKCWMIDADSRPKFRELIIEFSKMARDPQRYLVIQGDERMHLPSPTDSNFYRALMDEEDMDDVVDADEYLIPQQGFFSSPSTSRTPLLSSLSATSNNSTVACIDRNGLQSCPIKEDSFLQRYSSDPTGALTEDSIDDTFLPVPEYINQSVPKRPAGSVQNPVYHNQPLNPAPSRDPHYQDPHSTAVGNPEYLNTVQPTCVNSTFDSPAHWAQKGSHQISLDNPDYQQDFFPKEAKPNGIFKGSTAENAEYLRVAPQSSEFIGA", "experiment": "Inhibition of EGFR (unknown origin) at 10 uM by Ambit Kinomescan binding assay relative to control"}, "[3]": {"target": "Ribosomal protein S6 kinase alpha-1 (Homo sapiens) (UniProt Q15418)", "sequence (Q15418 whole entry, the tested form may be a part)": "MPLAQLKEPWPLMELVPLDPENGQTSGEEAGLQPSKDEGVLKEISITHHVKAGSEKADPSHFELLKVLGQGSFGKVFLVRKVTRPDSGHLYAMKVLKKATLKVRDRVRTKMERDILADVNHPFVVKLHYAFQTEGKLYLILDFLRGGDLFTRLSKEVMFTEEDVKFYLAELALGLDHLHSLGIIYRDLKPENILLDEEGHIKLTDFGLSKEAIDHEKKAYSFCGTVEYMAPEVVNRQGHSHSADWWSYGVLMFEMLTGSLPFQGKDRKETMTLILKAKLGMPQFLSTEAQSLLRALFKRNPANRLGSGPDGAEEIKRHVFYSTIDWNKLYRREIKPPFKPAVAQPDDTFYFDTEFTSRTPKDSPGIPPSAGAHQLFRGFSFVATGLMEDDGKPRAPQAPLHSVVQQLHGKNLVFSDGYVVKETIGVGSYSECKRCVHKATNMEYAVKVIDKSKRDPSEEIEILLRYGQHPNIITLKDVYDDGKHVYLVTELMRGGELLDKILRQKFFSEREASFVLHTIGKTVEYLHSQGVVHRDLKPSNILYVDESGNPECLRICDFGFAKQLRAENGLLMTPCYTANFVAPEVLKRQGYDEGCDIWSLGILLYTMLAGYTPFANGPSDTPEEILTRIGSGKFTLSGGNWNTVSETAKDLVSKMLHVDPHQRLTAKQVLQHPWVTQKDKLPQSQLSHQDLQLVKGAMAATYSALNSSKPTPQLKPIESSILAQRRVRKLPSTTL", "experiment": "Inhibition of RSK1 Protein Kinase Domain in human A-375 cells at 5 uM by KiNativ Profiling analysis relative to control", "type": "cell-based"}, "[4]": {"target": "T2, Serine/threonine-protein kinase ULK3 (Homo sapiens) (UniProt Q6PHR2)", "T2 sequence (whole entry)": "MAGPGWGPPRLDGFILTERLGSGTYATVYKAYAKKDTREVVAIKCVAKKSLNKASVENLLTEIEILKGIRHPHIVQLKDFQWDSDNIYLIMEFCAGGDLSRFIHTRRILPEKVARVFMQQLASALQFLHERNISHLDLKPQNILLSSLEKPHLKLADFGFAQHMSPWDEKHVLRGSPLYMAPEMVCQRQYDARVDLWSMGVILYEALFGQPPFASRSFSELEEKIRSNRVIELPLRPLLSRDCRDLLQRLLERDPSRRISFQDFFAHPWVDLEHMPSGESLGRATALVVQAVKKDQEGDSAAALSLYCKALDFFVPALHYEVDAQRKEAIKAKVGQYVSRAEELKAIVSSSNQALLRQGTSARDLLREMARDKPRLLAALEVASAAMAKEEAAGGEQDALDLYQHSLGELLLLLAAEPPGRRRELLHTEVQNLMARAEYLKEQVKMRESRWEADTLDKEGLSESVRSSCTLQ", "experiment": "Inhibition of ULK3 Lys2 labeling site in human Huh-7 cell lysate at 1 uM by KiNativ Profiling analysis relative to control", "type": "subcellular"}, "[5]": {"target": "Mitogen-activated protein kinase kinase kinase 19 (Homo sapiens) (UniProt Q56UN5)", "sequence (Q56UN5 whole entry)": "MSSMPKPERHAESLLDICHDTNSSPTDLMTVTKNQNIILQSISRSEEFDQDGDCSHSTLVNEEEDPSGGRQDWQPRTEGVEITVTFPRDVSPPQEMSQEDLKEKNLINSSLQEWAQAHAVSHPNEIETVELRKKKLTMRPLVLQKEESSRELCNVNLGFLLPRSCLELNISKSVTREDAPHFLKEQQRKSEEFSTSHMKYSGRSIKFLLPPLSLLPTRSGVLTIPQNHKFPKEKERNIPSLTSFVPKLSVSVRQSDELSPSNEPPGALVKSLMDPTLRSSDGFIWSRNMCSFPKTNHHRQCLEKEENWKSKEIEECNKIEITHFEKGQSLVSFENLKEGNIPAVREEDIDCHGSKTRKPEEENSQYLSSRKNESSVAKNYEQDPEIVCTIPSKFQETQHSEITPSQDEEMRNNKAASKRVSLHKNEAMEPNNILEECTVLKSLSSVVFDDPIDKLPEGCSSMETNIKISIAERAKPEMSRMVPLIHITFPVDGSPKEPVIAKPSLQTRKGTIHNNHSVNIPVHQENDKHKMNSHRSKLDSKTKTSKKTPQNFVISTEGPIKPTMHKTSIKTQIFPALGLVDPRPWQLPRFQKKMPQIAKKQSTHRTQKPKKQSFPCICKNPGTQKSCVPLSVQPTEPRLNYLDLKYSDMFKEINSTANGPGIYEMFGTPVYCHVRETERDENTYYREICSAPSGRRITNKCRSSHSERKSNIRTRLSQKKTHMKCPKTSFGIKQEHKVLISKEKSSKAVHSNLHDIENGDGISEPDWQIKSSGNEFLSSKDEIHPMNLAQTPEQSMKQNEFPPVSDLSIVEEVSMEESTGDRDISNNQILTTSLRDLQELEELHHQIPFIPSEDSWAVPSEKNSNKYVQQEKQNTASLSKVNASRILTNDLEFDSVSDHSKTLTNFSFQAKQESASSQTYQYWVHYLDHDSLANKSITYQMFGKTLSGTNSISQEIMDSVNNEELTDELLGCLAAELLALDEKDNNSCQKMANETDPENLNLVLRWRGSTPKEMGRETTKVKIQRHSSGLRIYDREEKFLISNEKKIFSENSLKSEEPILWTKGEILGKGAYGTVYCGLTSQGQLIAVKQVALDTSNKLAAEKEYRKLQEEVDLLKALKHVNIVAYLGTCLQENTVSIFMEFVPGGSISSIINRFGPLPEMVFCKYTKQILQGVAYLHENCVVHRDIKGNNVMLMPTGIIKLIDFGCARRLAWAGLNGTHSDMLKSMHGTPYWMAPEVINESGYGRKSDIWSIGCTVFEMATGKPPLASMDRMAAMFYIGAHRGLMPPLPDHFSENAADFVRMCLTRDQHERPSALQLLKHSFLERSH", "experiment": "Inhibition of YSK4 (unknown origin) at 1 uM by Ambit Kinomescan binding assay relative to control; values are per cent of control"}, "[6]": {"target": "T3, NUAK family SNF1-like kinase 2 (Homo sapiens) (UniProt Q9H093)", "T3 sequence (whole entry)": "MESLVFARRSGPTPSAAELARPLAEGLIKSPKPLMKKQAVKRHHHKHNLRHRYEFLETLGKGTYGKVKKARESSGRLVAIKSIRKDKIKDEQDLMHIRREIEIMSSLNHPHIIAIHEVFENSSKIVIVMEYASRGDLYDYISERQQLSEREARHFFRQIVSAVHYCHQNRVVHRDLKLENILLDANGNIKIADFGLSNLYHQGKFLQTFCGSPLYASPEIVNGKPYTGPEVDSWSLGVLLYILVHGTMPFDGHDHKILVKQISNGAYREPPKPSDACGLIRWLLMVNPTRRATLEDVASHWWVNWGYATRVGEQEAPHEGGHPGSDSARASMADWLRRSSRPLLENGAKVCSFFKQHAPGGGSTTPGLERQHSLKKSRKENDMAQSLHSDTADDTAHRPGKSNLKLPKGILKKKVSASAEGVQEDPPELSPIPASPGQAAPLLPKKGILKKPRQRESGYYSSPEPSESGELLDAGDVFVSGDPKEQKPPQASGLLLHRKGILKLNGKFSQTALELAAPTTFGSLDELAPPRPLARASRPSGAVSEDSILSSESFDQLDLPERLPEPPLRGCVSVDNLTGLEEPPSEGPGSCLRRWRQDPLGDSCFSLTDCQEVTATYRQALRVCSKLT", "experiment": "Inhibition of SNARK (unknown origin) at 1 uM by Ambit Kinomescan binding assay relative to control"}}}
{"smiles": "CCN1CCN(Cc2ccc(NC(=O)c3ccc(C)c(Oc4ccnc5[nH]ccc45)c3)cc2C(F)(F)F)CC1", "values": [{"measurement": "inhibition", "setting": "[1]", "value": 96.6, "unit": "%"}, {"measurement": "inhibition", "setting": "[2]", "value": 5.6, "unit": "%"}, {"measurement": "inhibition", "setting": "[3]", "value": 5.8, "unit": "%"}]}
{"smiles": "CNc1cc(Oc2cc(C(=O)Nc3cc(N4CCN(C)CC4)cc(C(F)(F)F)c3)ccc2C)ncn1", "values": [{"measurement": "inhibition", "setting": "[4]", "value": 2.3, "unit": "%"}]}
{"smiles": "CCN1CCN(Cc2ccc(NC(=O)c3ccc(C)c(/C=C/c4cnc5[nH]ccc5c4OC)c3)cc2C(F)(F)F)CC1", "values": [{"measurement": "percent of control", "setting": "[5]", "value": 1.1, "unit": "%"}, {"measurement": "inhibition", "setting": "[6]", "value": 76, "unit": "%"}]}
